From patent publication US20080318909A1, “Use Of Linoleic Compounds Against Heart Failure” (priority 2007, published 2008)

Legend:
[1] = system: SHHF rats; assay: Long-term diet study in SHHF rats (fifteen to twenty-one months of age); type: in vivo, rat
Experimental: Experiments were performed to determine whether the amount of (18:2)4CL in vivo may be altered with diet and, if so, whether this capability may be used to influence the time course of heart failure in SHHF rats. The two diets studied were a linoleic acid-rich safflower oil diet and a diet supplemented with lard.
Lean male SHHF rats aged eight weeks and fifteen months were used in the studies. […] The progression toward heart failure in SHHF rats shares a wide variety of marked similarities to the progression toward heart failure in humans.
To study the normal timecourse of HF, male SHHF rats were placed on special diets for six months, from fifteen to twenty-one months of age. This timecourse was chosen, because fifteen months is the time when SHHF rats start to progress from hypertension to HF. By twenty-one months most controls should be showing signs of overt HF.

[2] = system: fibroblasts from Barth Syndrome patients; conditions: fibroblasts supplemented with 18:2; cited from earlier work
[3] = system: PPARβ; assay: PPAR binding in LVs of twenty month old SHHF rats on linoleic acid supplement; type: in vivo, rat; conditions: FIG. 13
From the text: Peroxisome Proliferator-Activated Receptors: Peroxisome proliferator-activated receptors (PPARs) are a family of nuclear transcription factors comprised of PPARα, PPARγ, and PPARβ (also called PPARδ). […] Alteration in PPAR isoform levels results in CL changes, and it is well established that the natural activator for PPARs are polyunsaturated fatty acids, such as 18:2. […] PPARβ is currently believed to be the most pharmacologically promising of the three isoforms. Linoleic acid supplementation results in an increase in PPARβ binding, FIG. 13.

[4] = system: TAB rats; assay: SC-26196 fed in chow to TAB rats with induced heart failure; type: in vivo, rat
From the text: Δ5 Desaturase and Δ6 Desaturase: Δ6 desaturase mRNA increases with heart failure in SHHF rats (FIG. 11). The Δ5 desaturase and Δ6 desaturase inhibitor SC-26196 (Pfizer) was fed to TAB rats in which heart failure was induced three weeks after TAB. The rats were allowed to reach a pre-failure state for a week and then the drug, SC-26196, was given in the chow for two weeks. […] Use of the Δ5 desaturase and Δ6 desaturase inhibitor, SC-26196, improved the heart function of SHHF rats and caused an increase in linoleic acid and a decrease in arachidonic acid levels in the heart.
Rapid induction of HF was studied using eight week old male SHHF rats maintained on a control (Purina 5001) diet since weaning from their mothers. Rapid HF is induced by transaortic banding (TAB) accompanied by a high salt diet for four weeks (TAB/HS). Rats are used for experiments four weeks following TAB/HS treatment.

Structure (SMILES)	left ventricular dimension ([1]; 18:2 supplementation)	systolic function ([1]; 18:2 supplementation)	survivability / survival of SHHF rats ([1]; compared to lard supplemented or standard chow diets, FIG. 7)	amount of (18:2)4CL [2]	PPARβ binding [3]	arachidonic acid levels in the heart ([4]; SHHF rats)	linoleic acid levels in the heart ([4]; SHHF rats)	survivability of SHHF rats ([4]; given in the chow)	production of arachidonic acid from linoleic acid ([4]; given in the chow for two weeks)	cardiac function (fractional shortening) ([4]; given in the chow for two weeks, FIG. 12A)	level of (18:2)4CL ([4]; given in the chow for two weeks, FIG. 12B)
CCCCC/C=C\C/C=C\CCCCCCCC(=O)O [Linoleic acid, linoleic acid]	Trends for improvement	Trends for improvement	significant increase	increased	increase	–	–	–	–	–	–
N#CC(CCCN1CCN(/N=C/c2cccnc2)CC1)(c1ccccc1)c1ccccc1 [SC-26196]	–	–	–	–	–	decrease	increase	improved	effectively blocked	improved	increased
